For two compounds, EC50 results are on record in BindingDB's records for doi:10.1021/jm201510p (Abo Akademi University, 2012).

The target in the assay is T1, Poly [ADP-ribose] polymerase tankyrase-2 (Homo sapiens, UniProt Q9H2K2).
T1 sequence (Q9H2K2 whole entry): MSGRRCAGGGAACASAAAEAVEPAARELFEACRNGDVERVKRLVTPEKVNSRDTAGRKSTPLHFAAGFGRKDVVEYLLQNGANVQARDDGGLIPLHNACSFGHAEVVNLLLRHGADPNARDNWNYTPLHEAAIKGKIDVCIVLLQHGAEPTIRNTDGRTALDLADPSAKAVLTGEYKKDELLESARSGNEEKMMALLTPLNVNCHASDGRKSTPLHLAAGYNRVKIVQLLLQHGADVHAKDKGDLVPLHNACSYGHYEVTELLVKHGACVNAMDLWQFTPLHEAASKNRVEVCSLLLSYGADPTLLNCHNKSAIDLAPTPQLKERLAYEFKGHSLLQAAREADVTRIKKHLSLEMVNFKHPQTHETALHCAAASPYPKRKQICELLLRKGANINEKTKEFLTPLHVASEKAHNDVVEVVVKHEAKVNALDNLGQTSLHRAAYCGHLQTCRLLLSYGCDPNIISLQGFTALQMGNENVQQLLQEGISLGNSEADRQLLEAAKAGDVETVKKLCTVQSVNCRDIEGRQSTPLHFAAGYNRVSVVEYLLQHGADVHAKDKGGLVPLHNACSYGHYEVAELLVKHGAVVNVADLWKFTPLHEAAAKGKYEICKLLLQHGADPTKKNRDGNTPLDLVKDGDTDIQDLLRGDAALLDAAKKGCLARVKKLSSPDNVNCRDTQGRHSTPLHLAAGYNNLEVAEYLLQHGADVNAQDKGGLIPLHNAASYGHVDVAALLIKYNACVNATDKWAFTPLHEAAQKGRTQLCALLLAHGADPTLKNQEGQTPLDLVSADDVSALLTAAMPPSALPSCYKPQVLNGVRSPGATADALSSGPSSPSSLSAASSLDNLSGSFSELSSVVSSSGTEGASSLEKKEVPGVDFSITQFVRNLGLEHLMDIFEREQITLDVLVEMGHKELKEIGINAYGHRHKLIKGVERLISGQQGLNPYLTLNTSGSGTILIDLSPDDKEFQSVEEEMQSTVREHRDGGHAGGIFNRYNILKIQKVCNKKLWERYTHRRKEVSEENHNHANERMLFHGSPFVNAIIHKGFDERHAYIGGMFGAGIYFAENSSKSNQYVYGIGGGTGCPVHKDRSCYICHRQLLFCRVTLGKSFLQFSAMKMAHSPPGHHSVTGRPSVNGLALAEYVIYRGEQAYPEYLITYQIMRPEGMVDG
Kind of assay: Activity of N-terminus hexaHis-tagged human TNSK2 expressed in Escherichia coli BL21 (DE3) cells using biotinylated NAD+ as substrate after 90 mins by Western blot analysis.

For `O=C(Nc1ccccc1)c1ccc(-n2c(O)c3c(c2O)[C@H]2C=C[C@@H]3C2)cc1`, the EC50 was greater than 25 µM.

Turning to `O=C(NC1CCCCC1)c1ccc(-n2c(O)c3c(c2O)[C@H]2C=C[C@@H]3C2)cc1` [N-Cyclohexyl-4-((1R,2S,6R,7S)-3,5-dioxo-4-aza-tricyclo[5.2.1.0*2,6*]dec-8-en-4-yl)-benzamide], the concentration for a half-maximal effect (EC50) is greater than 25 µM.
